# pEC50: −log10 of the molar value.
# Test system: Myotonic Dystrophy 1 affected patient fibroblasts (Coriel GM04602; 1600 CTG repeats)
# Assay: DM1 foci reduction assay (EC50 assay; CAG10-Cy3 FISH, foci per nucleus)
# Assay type: cell-based
# Conditions: Homo sapiens, Fibroblast; DM1 patient fibroblasts, 48 h treatment, foci per nucleus; read-out: DM1 EC50, 48 h
# Protocol: DM1 Foci Reduction Assay Methods
# Myotonic Dystrophy 1 affected patient fibroblasts (Coriel GM04602; 1600 CTG repeats) and wild type fibroblasts (Coriell GM07492; control line) were cultured separately in Gibco DMEM (1×)+4.5 g/L D-Glucose+L-Glutamine+[…] Sodium Pyruvate, supplemented with 10% FBS and 1× Pen/Strep. Cells were maintained in an incubator at 37° C. and 5% CO2 with media refreshed every 48-72 hours.
# At 90-95% confluency, both cell lines were harvested using Trypl-E then pelleted at 500×g for 5 minutes and were resuspended in fresh media. DM1 fibroblasts were seeded in Agilent 96 well black plates at a density of 5,000 cells/well in 200 μL media; and 8 wells were reserved for control fibroblasts. Plates were returned to incubator for 24 hours at 37° C. and 5% CO2.
# Compounds were diluted from 10 mM stock to 1 mM in DMSO and then diluted once more to 6 μM (2× concentration) in media. Media was removed from all plates and cells were replenished with 100 μL media. Cells were treated in 8-point dose response, 1:3 fold dilution, 3 μM top dose via addition of 100 μL of 6 μM (2× concentration) compound to the 100 μL media with cells. Plates were returned to incubator for 48 hours at 37° C. and 5% CO2.
# Following treatment, compounds were removed, and plates were washed with PBS, then cells were fixed in 75 μL 4% PFA solution for 20 minutes at room temperature. Plates were washed twice with PBS and twice with cold 70% ethanol before permeabilization with 250 μL cold 70% ethanol for 24-72 hours at −20° C.
# After permeabilization, plates were washed once with a 30% formamide and 2×SSC buffer and rehydrated in that buffer for 15 minutes at room temperature. Cells were incubated overnight at 37° C. in 75 μL of a hybridization solution containing 30% formamide, 2×SSC, 25 mg/mL dextran sulfate, 2.5 mg/mL BSA, 0.2 μg/mL Herring sperm DNA, 2 mM vanadyl-ribonucleoside complex, and 5 nM CAG10-Cy3 probe.
# Plates were washed once with 30% formamide in 2×SSC buffer, then twice with the buffer for 30 minutes at 37° C., 300 RPM in an incubating plate shaker. Cells were stained with 75 μL of 2.5 μg/mL DAPI in PBS for 5 minutes at room temperature. Plates were then washed twice with PBS and stored in 250 μL PBS. Plates were sealed with adhesive foil and wiped down with 70% ethanol.
# Cells were imaged on a Cytation5 with a 20× objective sampling from 4 areas of each well. Nuclei were captured under DAPI channel and foci under RFP channel. Plates were analyzed on an average foci per nucleus per well basis.
row,SMILES,pEC50
1,CCN(CC)CCCC[C@@H](NC(C)=O)C(=O)NCCNC(=O)CCNC(=O)c1nc(NC(=O)c2cc(NC(=O)CCNC(=O)c3nc(NC(=O)CCCNC(=O)c4cc(NC(=O)c5nc(NC(=O)CCNC(=O)c6cc(NC(=O)c7nccn7C)cn6C)cn5C)cn4C)cn3C)cn2C)cn1C [Compound B-103],< 6.00
2,CCN(CC)CCCC[C@H](NC(=O)c1cccc(C(=O)O)c1)C(=O)NCCOCCOCCOCCNC(=O)CCNC(=O)c1nc(NC(=O)c2cc(NC(=O)CCNC(=O)c3nc(NC(=O)CCCNC(=O)c4cc(NC(=O)c5nc(NC(=O)CCNC(=O)c6cc(NC(=O)c7nccn7C)cn6C)cn5C)cn4C)cn3C)cn2C)cn1C [Compound B-223],< 6.00
3,CN(C)c1ccc(C#CC#CCNC(=O)CCNC(=O)c2nc(NC(=O)c3cc(NC(=O)CCNC(=O)c4nc(NC(=O)CCCNC(=O)c5cc(NC(=O)c6nc(NC(=O)CCNC(=O)c7cc(NC(=O)c8nccn8C)cn7C)cn6C)cn5C)cn4C)cn3C)cn2C)cc1 [Compound B-133],< 6.00
4,CCCNC(=O)CCNC(=O)c1nc(NC(=O)c2cc(NC(=O)CCNC(=O)c3nc(NC(=O)CCCNC(=O)c4cc(NC(=O)c5nc(NC(=O)CCNC(=O)c6cc(NC(=O)c7nccn7C)cn6C)cn5C)cn4C)cn3C)cn2CCCCCCN=[N+]=[N-])cn1C [Compound B-56],6.30 to 7.00
5,Cn1cc(NC(=O)c2nc(NC(=O)CCNC(=O)c3cc(NC(=O)c4nccn4C)cn3C)cn2C)cc1C(=O)NCCCC(=O)Nc1cn(C)c(C(=O)NCCC(=O)Nc2cc(C(=O)Nc3cn(C)c(C(=O)N4CC(c5cnc(CNC(=O)OCc6ccccc6)[nH]5)C4)n3)n(C)c2)n1 [Compound B-201],< 6.00
6,CCN(CC)CCCC[C@@H](NC(C)=O)C(=O)NCCOCCOCCNC(=O)CCNC(=O)c1nc(NC(=O)c2cc(NC(=O)CCNC(=O)c3nc(NC(=O)CCCNC(=O)c4cc(NC(=O)c5nc(NC(=O)CCNC(=O)c6cc(NC(=O)c7nccn7C)cn6C)cn5C)cn4C)cn3C)cn2C)cn1C [Compound B-102],6.00 to 6.30
7,Cn1cc(NC(=O)c2nc(NC(=O)CCNC(=O)c3cc(NC(=O)c4nccn4C)cn3C)cn2C)cc1C(=O)NCCCC(=O)Nc1cn(C)c(C(=O)NCCC(=O)Nc2cc(C(=O)Nc3cn(C)c(C(=O)NCCOCCOCCOCCN4CCC(C#CC#CC5CCN(C(=O)OC(C)(C)C)CC5)CC4)n3)n(C)c2)n1 [Compound B-199],6.30 to 7.00
8,Cn1cc(NC(=O)c2nc(NC(=O)CCNC(=O)c3cc(NC(=O)c4nccn4C)cn3C)cn2C)cc1C(=O)NCCCC(=O)Nc1cn(C)c(C(=O)NCCC(=O)Nc2cc(C(=O)Nc3cn(C)c(C(=O)NCCC(=O)N4CCC(CC5CC[N+](C)(C)CC5)CC4)n3)n(C)c2)n1 [Compound B-262],< 6.00
9,CC(C)CCC(=O)N1CCC(C#CC#CC2CCN(CCCCCNC(=O)CCNC(=O)c3nc(NC(=O)c4cc(NC(=O)CCNC(=O)c5nc(NC(=O)CCCNC(=O)c6cc(NC(=O)c7nc(NC(=O)CCNC(=O)c8cc(NC(=O)c9nccn9C)cn8C)cn7C)cn6C)cn5C)cn4C)cn3C)CC2)CC1 [Compound B-184],< 6.00
10,COCCOCCOCCOCCN(CCOCCOCCOCCOC)C(=O)CCCCn1cc(NC(=O)c2nc(NC(=O)CCNC(=O)c3cc(NC(=O)c4nccn4C)cn3C)cn2C)cc1C(=O)NCCCC(=O)Nc1cn(C)c(C(=O)NCCC(=O)Nc2cc(C(=O)Nc3cn(C)c(C(=O)NCCC(=O)N4CCC(N5CCN(C(=O)OC(C)(C)C)CC5)CC4)n3)n(C)c2)n1 [Compound B-242],< 6.00
11,CN1CCC(C#CC#CCNC(=O)CCNC(=O)c2nc(NC(=O)c3cc(NC(=O)CCNC(=O)c4nc(NC(=O)CCCNC(=O)c5cc(NC(=O)c6nc(NC(=O)CCNC(=O)c7cc(NC(=O)c8nccn8C)cn7C)cn6C)cn5C)cn4C)cn3C)cn2C)CC1 [Compound B-138],< 6.00
12,CCCNC(=O)CCNC(=O)c1nc(NC(=O)c2cc(NC(=O)CCNC(=O)c3nc(NC(=O)CCCNC(=O)c4cc(NC(=O)c5nc(NC(=O)CCNC(=O)c6cc(NC(=O)c7nccn7C)cn6C)cn5C)cn4CCCCCCNC(C)=O)cn3C)cn2C)cn1C [Compound B-292],> 7.00
13,COCCOCCOCCOCCN(CCOCCOCCOCCOC)C(=O)CCCCn1cc(NC(=O)CCNC(=O)c2nc(NC(=O)CCCNC(=O)c3cc(NC(=O)c4nc(NC(=O)CCNC(=O)c5cc(NC(=O)c6nccn6C)cn5C)cn4C)cn3C)cn2C)cc1C(=O)Nc1cn(C)c(C(=O)NCCC(=O)N2CCC(N3CCNCC3)CC2)n1 [Compound B-160],< 6.00
14,CCN(CC)CCCC[C@@H](NC(=O)C1CCNCC1)C(=O)NCCOCCOCCOCCOCCOCCNC(=O)CCNC(=O)c1nc(NC(=O)c2cc(NC(=O)CCNC(=O)c3nc(NC(=O)CCCNC(=O)c4cc(NC(=O)c5nc(NC(=O)CCNC(=O)c6cc(NC(=O)c7nccn7C)cn6C)cn5C)cn4C)cn3C)cn2C)cn1C [Compound B-101],< 6.00
15,Cn1cc(NC(=O)c2nc(NC(=O)CCNC(=O)c3cc(NC(=O)c4nccn4C)cn3C)cn2C)cc1C(=O)NCCCC(=O)Nc1cn(C)c(C(=O)NCCC(=O)Nc2cc(C(=O)Nc3cn(C)c(C(=O)NCCC(=O)N4CCC(O)(C#CC5CCNCC5)CC4)n3)n(C)c2)n1 [Compound B-196],< 6.00
16,Cn1cc(NC(=O)c2nc(NC(=O)CCNC(=O)c3cc(NC(=O)c4nccn4C)cn3C)cn2C)cc1C(=O)NCCCC(=O)Nc1cn(C)c(C(=O)NCCC(=O)Nc2cc(C(=O)Nc3cn(C)c(C(=O)NCCC(=O)N4CCC(C#CC#CC5CCN(CCCNC(=O)c6cccc(C(=O)O)c6)CC5)CC4)n3)n(C)c2)n1 [Compound B-225],6.30 to 7.00
17,CCCNC(=O)c1cc(NC(=O)c2nc(NC(=O)CCCNC(=O)c3cc(NC(=O)c4nc(NC(=O)CCNC(=O)c5cc(NC(=O)c6nccn6C)cn5C)cn4C)cn3C)cn2C)cn1C [Compound B-67],< 6.00
18,CCN(CC)CCCC[C@@H](NC(C)=O)C(=O)NCCNC(=O)CCNC(=O)c1nc(NC(=O)CCNC(=O)c2cc(NC(=O)c3nc(NC(=O)CCCNC(=O)c4cc(NC(=O)c5nc(NC(=O)CCNC(=O)c6cc(NC(C)c7nccn7C)cn6C)cn5C)cn4C)cn3C)cn2C)cn1C (some centres unmarked) [Compound B-98],< 6.00
19,CN1CCC(NC(=O)CCNC(=O)c2nc(NC(=O)c3cc(NC(=O)CCNC(=O)c4nc(NC(=O)CCCNC(=O)c5cc(NC(=O)c6nc(NC(=O)CCNC(=O)c7cc(NC(=O)c8nccn8C)cn7C)cn6C)cn5C)cn4C)cn3C)cn2C)CC1 [Compound B-55],6.30 to 7.00
20,CCCNC(=O)CCNC(=O)c1nc(NC(=O)c2cc(NC(=O)CCNC(=O)c3nc(NC(=O)CCCNC(=O)c4cc(NC(=O)c5nc(NC(=O)CCNC(=O)c6cc(NC(=O)c7nccn7C)cn6C)cn5C)cn4C)cn3C)cn2CCCCCN(CCOCCOCCOCCOC)CCOCCOCCOCCOC)cn1C [Compound B-157],< 6.00
21,CCCNC(=O)CCNC(=O)c1nc(NC(=O)c2cc(NC(=O)CCNC(=O)c3nc(NC(=O)CCCNC(=O)c4cc(NC(=O)c5nc(NC(=O)CCNC(=O)c6cc(NC(=O)c7nccn7C)c[nH]6)cn5C)c[nH]4)cn3C)c[nH]2)cn1C [Compound B-62],< 6.00
22,Cn1cc(NC(=O)c2nc(NC(=O)CCNC(=O)c3cc(NC(=O)c4nccn4C)cn3C)cn2C)cc1C(=O)NCCCC(=O)Nc1cn(C)c(C(=O)NCCC(=O)Nc2cc(C(=O)Nc3cn(C)c(C(=O)NCCC(=O)NCCOCCOCCOCCOCCOc4ccc(NC(=O)OCc5ccccc5)cc4)n3)n(C)c2)n1 [Compound B-11],< 6.00
23,Cn1cc(NC(=O)c2nc(NC(=O)c3cc(NC(=O)CCNC(=O)c4nccn4C)cn3C)cn2C)cc1C(=O)NCCCC(=O)Nc1cn(C)c(C(=O)NCCC(=O)Nc2cc(C(=O)Nc3cn(C)c(C(=O)NCCC(=O)NCCCCN=[N+]=[N-])n3)n(C)c2)n1 [Compound B-84],< 6.00
24,Cn1cc(NC(=O)c2nc(NC(=O)CCNC(=O)c3cc(NC(=O)c4nccn4C)cn3C)cn2C)cc1C(=O)NCCCC(=O)Nc1cn(C)c(C(=O)NCCC(=O)Nc2cc(C(=O)Nc3cn(C)c(C(=O)NCCC(=O)NCCNc4ccc(C(C)(C)C)cc4)n3)n(C)c2)n1 [Compound B-181],< 6.00
25,Cn1cc(NC(=O)c2nc(NC(=O)CCNC(=O)c3cc(NC(=O)c4nccn4C)cn3C)cn2C)cc1C(=O)NCCCC(=O)Nc1cn(C)c(C(=O)NCCC(=O)Nc2cc(C(=O)Nc3cn(C)c(C(=O)NCCC(=O)NCC#N)n3)n(C)c2)n1 [Compound B-112],6.00 to 6.30

# Same assay, conditions: Homo sapiens, Fibroblast; DM1 patient fibroblasts, foci per nucleus, 48 h treatment; read-out: DM1 EC50, 48 h
row,SMILES,pEC50
1,CCn1cc(NC(=O)c2nc(NC(=O)CCNC(=O)c3cc(NC(=O)c4nccn4C)cn3C)cn2C)cc1C(=O)NCC1(CC(=O)Nc2cn(C)c(C(=O)NCCC(=O)Nc3cc(C(=O)Nc4cn(C)c(C(=O)NCCCCN(C)C)n4)n(C)c3)n2)CC1 [Compound B-436],> 7.00

# Reference: patent publication US20250368628A1, “METHODS AND COMPOUNDS FOR MODULATING INHERITED GENETIC DISEASES” (Design Therapeutics, Inc., priority 2022, published 2025)
